Results as given in patent US12172988B2, “Anticancer and antifungal splice modulators” (priority 2021, dated 2024).
Where two headings read alike, the source gives them in different places.

Experiments:
[1] = compared with C16-C17 isomers / pladienolides, cited from earlier work
DNAJB1 = assay: qPCR splicing analysis, DNAJB1 intron retention; format: cell-based, human; details: for DNAJB1 intron retention: HCT116, 24 h, 100, 250, 500 nM, compared to 1
Experimental: (§1) HCT116 tumor cells were treated with each analogue at 20 times the G150 value (Table 12) for 4 hours and then cellular RNA was isolated and purified for qPCR. Primers were designed to evaluate intron retention or exon skipping, direct responses to splice modulator treatment. Genes evaluated included those involved in splicing regulation (SF3A1, SF3A3, SF3B1, SF3B2), apoptosis (MCL-1L), protein folding (DNAJB1), and cell cycle regulation (AURKA, PLK-1) relative to the unspliced control GAPDH. For alternative splicing regulator (SF2), primers were designed to evaluate gene expression, which changes in response splice modulator treatment for SF2 relative to the unspliced control GAPDH. (−) denotes untreated cells.
as §1, with “analogues” for “each analogue”, “100 nM (light grey), 250 nM (grey), or 500 nM (black)” for “20 times the G150 value (Table 12)”, “24 h” for “4 hours”, “(MCL-1L), and” for “(MCL-1L),”, “(DNAJB1),” for “(DNAJB1), and cell cycle regulation (AURKA, PLK-1)”, “(—)” for “(−)”
(§2) Next, we turned our efforts to explore the ability of these analogues to modulate splicing. […] We treated cells for 4 h so that we could evaluate early changes in splicing activity, and then cellular RNA was isolated and purified for analyses by qPCR (FIG. 14). Most importantly, none of the concentrations tested led to significant changes in cell viability, ensuring that changes in gene expression were not due to cell death.
(§3) For these studies, we evaluated the expression of genes involved in splicing regulation (SF3A1, SF3A3, SF3B1, SF3B2), apoptosis (MCL-1L), protein folding (DNAJB1), and cell cycle regulation (AURKA, PLK-1) relative to the unspliced control GAPDH. Primers were designed to evaluate intron retention or exon skipping, direct responses to splice modulator treatment. The master splicing regulator alternative splicing factor (SF2) was also evaluated, with the primers for this gene designed to evaluate overall gene expression, which changes in response to splice modulator treatment.
(§4) From this 4 h study (FIG. 14), a small set of analogs (1, 1b, 1g, 1d, 1e, 1i and 1j) were selected to evaluate if effects on splicing when presented for a longer 24 h period. […] Using identical procedures as that used for 4 h, HCT116 cells were treated with three concentrations (100 nM, 250 nM and 500 nM) of each analog for 24 h. Multiple concentrations were used as a means to check further validate the use of the GI50 concentration in our prior study (FIG. 14). As before, none of the concentrations tested led to significant changes in cell viability over the 24-hour time window, ensuring that changes in gene expression were not due to cell death.
Cells were treated with 1 or 1a-1j in media (McCoy's 5a (Life Technologies) supplemented with 10% FBS, 2 mM L-glutamine, and 100 U mL^−1 of penicillin and 100 μg mL^−1 of streptomycin 0.5% DMSO) for 4 h or 24 h. Untreated cells were considered were used as negative control. Total RNA was isolated using mirVana miRNA isolation kit (Life Technologies). […]

SF2 = assay: qPCR gene expression of alternative splicing factor SF2; format: cell-based, human; details: for SF2 RNA expression: HCT116, 24 h, 100, 250, 500 nM, compared to 1
Experimental: as §1
as §1, with “analogues” for “each analogue”, “100 nM (light grey), 250 nM (grey), or 500 nM (black)” for “20 times the G150 value (Table 12)”, “24 h” for “4 hours”, “(MCL-1L), and” for “(MCL-1L),”, “(DNAJB1),” for “(DNAJB1), and cell cycle regulation (AURKA, PLK-1)”, “(—)” for “(−)”
as §2, §3
From this 4 h study (FIG. 14), a small set of analogs (1, 1b, 1g, 1d, 1e, 1i and 1j) were selected to evaluate if effects on splicing when presented for a longer 24 h period. […] Using identical procedures as that used for 4 h, HCT116 cells were treated with three concentrations (100 nM, 250 nM and 500 nM) of each analog for 24 h. […]

[2] = in vivo; cited from earlier work
PLK-1 = assay: qPCR splicing analysis, PLK-1 exon skipping / RNA expression; format: cell-based, human; details: for PLK-1 RNA expression: HCT116, 24 h, 100, 250, 500 nM
Experimental: as §1, §2, §3, §4
Cells were treated with 1 or 1a-1j in media (McCoy's 5a (Life Technologies) supplemented with 10% FBS, 2 mM L-glutamine, and 100 U mL^−1 of penicillin and 100 μg mL^−1 of streptomycin 0.5% DMSO) for 4 h or 24 h. Untreated cells were considered were used as negative control. Total RNA was isolated using mirVana miRNA isolation kit (Life Technologies). A 1 μg sample of RNA was subjected to DNAseI from a TURBO DNA free kit (Life Technologies). […] The amount of unspliced RNA for different genes was determined using Power SYBR Green PCR master mix (Applied Biosystems) by qPCR using specific primers for each gene. qPCR using 2.5 μM of each primer was performed on 5 ng of the obtained cDNA. qPCR conditions were as follows: 95° C. for 10 min for one cycle, then 95° C. for 10 min for one cycle, then 95° C. for 30 s, 55° C. for 60 s, 72° C. for 60 s, for 40 cycles using the MXPro. Quantification cycle (Cq) values were identified for each sample, and then RNA levels were calculated using 2-ΔΔCT method. […] Namely, all genes explored in this study were evaluated from the same cell cultures. […]

SF3A3 = assay: qPCR splicing analysis, SF3A3 intron retention; format: cell-based, human; details: HCT116, 24 h, 100, 250, 500 nM
Experimental: as §1
HCT116 tumor cells were treated with analogues at 100 nM (light grey), 250 nM (grey), or 500 nM (black) for 24 h and then cellular RNA was isolated and purified for qPCR. […] Genes evaluated included those involved in splicing regulation (SF3A1, SF3A3, SF3B1, SF3B2), apoptosis (MCL-1L), and protein folding (DNAJB1), relative to the unspliced control GAPDH. […]
For these studies, we evaluated the expression of genes involved in splicing regulation (SF3A1, SF3A3, SF3B1, SF3B2), apoptosis (MCL-1L), protein folding (DNAJB1), and cell cycle regulation (AURKA, PLK-1) relative to the unspliced control GAPDH. […]

AURKA = assay: qPCR splicing analysis, AURKA exon skipping / expression; format: cell-based, human; details: HCT116, 24 h, 100, 250, 500 nM
Experimental: as §1
Next, we turned our efforts to explore the ability of these analogues to modulate splicing. […] We treated cells for 4 h so that we could evaluate early changes in splicing activity, and then cellular RNA was isolated and purified for analyses by qPCR (FIG. 14). […]
For these studies, we evaluated the expression of genes involved in splicing regulation (SF3A1, SF3A3, SF3B1, SF3B2), apoptosis (MCL-1L), protein folding (DNAJB1), and cell cycle regulation (AURKA, PLK-1) relative to the unspliced control GAPDH. […] The master splicing regulator alternative splicing factor (SF2) was also evaluated, with the primers for this gene designed to evaluate overall gene expression, which changes in response to splice modulator treatment. […]
Cells were treated with 1 or 1a-1j in media (McCoy's 5a (Life Technologies) supplemented with 10% FBS, 2 mM L-glutamine, and 100 U mL^−1 of penicillin and 100 μg mL^−1 of streptomycin 0.5% DMSO) for 4 h or 24 h. […] The amount of unspliced RNA for different genes was determined using Power SYBR Green PCR master mix (Applied Biosystems) by qPCR using specific primers for each gene. qPCR using 2.5 μM of each primer was performed on 5 ng of the obtained cDNA. qPCR conditions were as follows: 95° C. for 10 min for one cycle, then 95° C. for 10 min for one cycle, then 95° C. for 30 s, 55° C. for 60 s, 72° C. for 60 s, for 40 cycles using the MXPro. […]

[3] = HCT116, 4 h, 20 times GI50, qPCR

Structure (SMILES) | stability (words) [1] | stability (words) ([1]; listed as 17S-FD-895) | DNAJB1 intron retention (DNAJB1) | SF2 RNA expression (SF2) | MTD [2] [mg/kg] | PLK-1 RNA expression (PLK-1) | SF3A3 intron retention (SF3A3) | DNAJB1 intron 2 retention (level of intron retention) (DNAJB1; HCT116, 4 h, 20 times GI50, qPCR relative to GAPDH) | down regulating the expression of SF2 RNA (SF2; [3]) | effect on exon 3 inclusion in PLK-1 (PLK-1; [3]) | AURKA expression (AURKA)
CC[C@H](OC)[C@@H](C)[C@H]1O[C@@H]1[C@@H](O)[C@H](C)/C=C/C=C(\C)[C@H]1OC(=O)C[C@H](O)CC[C@@](C)(O)[C@@H](OC(C)=O)/C=C/[C@@H]1C [Analog 1d, 17S-FD-895] | increased stability | metabolically-improved | decreased level of intron retention | decreased effect at reducing | 4 | decreased effect at reducing | – | – | – | – | –
CC[C@H](OC)[C@@H](C)[C@H]1O[C@@H]1[C@@H](O)[C@H](C)/C=C/C=C(\C)[C@H]1OC(=O)C[C@@H](O)CC[C@@](C)(O)[C@@H](OC(C)=O)/C=C/[C@@H]1C [Analog 1g, 3S,17S-FD-895] | – | – | loss in intron retention | reduced ability to inhibit SF2 RNA expression | – | reduced PLK-1 RNA expression | concentration dependent increase intron retention | highest level of intron retention | highest efficacy | most potent effect | altered the expression of AURKA comparable to 1
CC[C@@H](OC)[C@H](C)[C@H]1O[C@@H]1[C@@H](O)[C@H](C)/C=C/C=C(\C)[C@H]1OC(=O)C[C@H](O)CC[C@@](C)(O)[C@@H](OC(C)=O)/C=C/[C@@H]1C [Analog 1j, 17S,20S,21R-FD-895] | – | – | – | – | – | – | – | – | – | – | reducing the expression of AURKA at 500 nM
CC[C@H](OC)[C@@H](C)[C@@H]1O[C@H]1[C@@H](O)[C@H](C)/C=C/C=C(\C)[C@H]1OC(=O)C[C@H](O)CC[C@@](C)(O)[C@@H](OC(C)=O)/C=C/[C@@H]1C [Analog 1i, 17S,18S,19S-FD-895] | – | – | – | – | – | increased the RNA expression relative to negative controls | – | – | – | – | –
